Consider 30 molecules from US20230002374A1, “GPR52 MODULATOR COMPOUNDS” (Heptares Therapeutics Limited, priority 2019, published 2023).

The assay has as its target human GPR52 (Homo sapiens, UniProt Q9Y2T5). Nature of the assay: GPR52 Agonist Functional cAMP Assay.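 On all read-outs here: HEKf cells transduced with GPR52 BacMam for 24 h, 2000 per well, exposed to compounds 30 min at 37° C with 0.5 mM IBMX, cAMP read by HTRF.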 The following applies: for Emax: maximal response normalised to DMSO (0%) and maximal compound 7m (J. Med. Chem., 2014, 57, 5226) response (100%); for EC50: pEC50 average, HEKf cells infected with human GPR52 BacMam virus, cAMP HTRF, 30 min at 37° C. On the technique in general: TR-FRET usually uses a lanthanide donor and a delayed reading to cut background.

Sequence of human GPR52 (Q9Y2T5 whole entry): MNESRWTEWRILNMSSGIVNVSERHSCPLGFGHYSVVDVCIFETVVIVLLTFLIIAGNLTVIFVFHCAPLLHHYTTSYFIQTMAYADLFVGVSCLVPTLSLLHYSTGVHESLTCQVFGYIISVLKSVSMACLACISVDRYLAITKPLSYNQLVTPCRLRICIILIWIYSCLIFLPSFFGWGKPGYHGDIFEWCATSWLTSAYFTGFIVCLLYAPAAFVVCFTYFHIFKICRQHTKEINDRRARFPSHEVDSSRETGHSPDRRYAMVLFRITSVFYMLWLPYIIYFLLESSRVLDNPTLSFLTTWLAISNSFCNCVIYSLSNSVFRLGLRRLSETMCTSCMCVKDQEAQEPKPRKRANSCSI
Description: Following BacMam infection, cells were pelleted by centrifugation (335 g, 5 min), resuspended in cell freezing medium (Sigma) and frozen at −150° C. until required. On experiment day, 25 nL GPR52 compound dilutions, prepared in DMSO, were stamped onto proxiplates (PerkinElmer) by a LabCyte ECHO acoustic dispenser. Frozen cells were thawed and resuspended in assay stimulation buffer (Cisbio) containing 0.5 mM 3-iso-butyl-1-methylxanthine (IBMX, Sigma) to achieve a density of 2000 cells per well. 10 μl cells were added to assay plates using a Multidrop Combi Reagent Dispenser (ThermoFisher) before centrifugation (335 g, 1 min). Cells were incubated with compounds at 37° C. for 30 min prior to addition of cAMP detection reagents (HiRange cAMP kit, Cisbio) which were prepared according to the manufacturer's instructions. Plates were shaken for 1 h at room temperature before reading on a PHERAstar FS plate reader (BMG Labtech) using standard HTRF settings.

In the case of `O=C1NCCc2c1cnn2-c1ccnc(C(O)c2cc(F)cc(C(F)(F)F)c2)c1` (stereo not drawn) [Example 36, 1-(2-((3-fluoro-5-(trifluoromethyl)phenyl)(hydroxy)methyl)pyridin-4-yl)-1,5,6,7-tetrahydro-4H-pyrazolo[4,3-c]pyridin-4-one], the Emax (usually the size of the effect at its maximum, as opposed to the concentration needed) was 92% and the half-maximal effective concentration (EC50) (as a rule, the concentration at which the effect is half-maximal) is 501 nM.

`O=C1NCCc2c1cnn2-c1ccnc(C(F)c2cc(F)cc(C(F)(F)F)c2)c1` (stereo not drawn) [Example 37, 1-(2-(fluoro(3-fluoro-5-(trifluoromethyl)phenyl)methyl)pyridin-4-yl)-1,5,6,7-tetrahydro-4H-pyrazolo[4,3-c]pyridin-4-one] showed an Emax of 93% and an EC50 of 126 nM.

Regarding `O=C1NCCc2c1cnn2-c1ccnc(C(F)(F)c2cc(F)cc(C(F)(F)F)c2)c1` [Example 38, 1-(2-(difluoro(3-fluoro-5-(trifluoromethyl)phenyl)methyl)pyridin-4-yl)-1,5,6,7-tetrahydro-4H-pyrazolo[4,3-c]pyridin-4-one], the Emax was determined as 55% and it took 631 nM to reach a half-maximal effect (EC50).

Take `CC1Cc2c(cnn2-c2ccnc(Cc3cc(F)cc(C(F)(F)F)c3)c2)C(=O)N1` (stereo not drawn) [Example 40, 1-(2-(3-fluoro-5-(trifluoromethyl)benzyl)pyridin-4-yl)-6-methyl-1,5,6,7-tetrahydro-4H-pyrazolo[4,3-c]pyridin-4-one]: the Emax is 93% and the EC50 was 100 nM.

In the case of `O=C1NCCCc2c1nnn2-c1cc(Cc2cccc(C(F)(F)F)c2)ccn1` [Example 41, 1-(4-(3-(trifluoromethyl)benzyl)pyridin-2-yl)-5,6,7,8-tetrahydro-[1,2,3]triazolo[4,5-c]azepin-4(1H)-one], the Emax came out at 90% and the EC50 was 794 nM.

Take `O=C1NCCc2c1nnn2-c1cc(Cc2cccc(C(F)(F)F)c2)ccn1` [Example 42, 1-(4-(3-(trifluoromethyl)benzyl)pyridin-2-yl)-1,5,6,7-tetrahydro-4H-[1,2,3]triazolo[4,5-c]pyridin-4-one]: the maximal effect (Emax) turned out to be 90% and the EC50 was 794 nM.

Regarding `O=C1NCCc2nn(-c3cc(Cc4cccc(C(F)(F)F)c4)ccn3)nc21` [Example 43, 2-(4-(3-(trifluoromethyl)benzyl)pyridin-2-yl)-2,5,6,7-tetrahydro-4H-[1,2,3]triazolo[4,5-c]pyridin-4-one], the Emax was determined as 86% and the EC50 was 251 nM.

Take `CN1CCc2nn(-c3cc(Cc4cccc(C(F)(F)F)c4)ccn3)nc2C1=O` [Example 44, 5-methyl-2-(4-(3-(trifluoromethyl)benzyl)pyridin-2-yl)-2,5,6,7-tetrahydro-4H-[1,2,3]triazolo[4,5-c]pyridin-4-one]: the Emax is 74% and the EC50 was 2000 nM.

With `O=C1NCCCc2nn(-c3cc(Cc4cccc(C(F)(F)F)c4)ccn3)nc21` [Example 45, 2-(4-(3-(trifluoromethyl)benzyl)pyridin-2-yl)-5,6,7,8-tetrahydro-[1,2,3]triazolo[4,5-c]azepin-4(2H)-one], the Emax was 75% and the EC50 was 631 nM.

With `O=C1NCCCc2c1nnn2-c1cc(Cc2cc(F)cc(C(F)(F)F)c2)ccn1` [Example 46, 1-(4-(3-fluoro-5-(trifluoromethyl)benzyl)pyridin-2-yl)-5,6,7,8-tetrahydro-[1,2,3]triazolo[4,5-c]azepin-4(1H)-one], the Emax turned out to be 90% and the EC50 is 200 nM.

On to `O=C1NOCc2c1cnn2-c1cc(Cc2cc(F)cc(C(F)(F)F)c2)ccn1` [Example 47, 1-(4-(3-fluoro-5-(trifluoromethyl)benzyl)pyridin-2-yl)-1,7-dihydropyrazolo[4,3-c/][1,2]oxazin-4(5H)-one], for which the Emax is 81% and a half-maximal response (EC50) required 79.4 nM.

In turn, `CC1CNC(=O)c2cnn(-c3ccnc(Cc4cc(F)cc(C(F)(F)F)c4)c3)c21` (stereo not drawn) [Example 50, 1-(2-(3-fluoro-5-(trifluoromethyl)benzyl)pyridin-4-yl)-7-methyl-1,5,6,7-tetrahydro-4H-pyrazolo[4,3-c]pyridin-4-one] had an Emax of 95% and an EC50 of 39.8 nM.

As to `O=C1NCCc2c1ccn2-c1ccnc(Cc2cc(F)cc(C(F)(F)F)c2)c1` [Example 51, 1-(2-(3-fluoro-5-(trifluoromethyl)benzyl)pyridin-4-yl)-1,5,6,7-tetrahydro-4H-pyrrolo[3,2-c]pyridin-4-one], the Emax worked out at 95% and the EC50 is 126 nM.

The molecule `O=C1NCCc2c1cnn2-c1ccnc(Oc2cc(F)cc(C(F)(F)F)c2)c1` [Example 52, 1-(2-(3-fluoro-5-(trifluoromethyl)phenoxy)pyridin-4-yl)-1,5,6,7-tetrahydro-4H-pyrazolo[4,3-c]pyridin-4-one] had a maximum response (Emax) of 69% and an EC50 of 1580 nM.

In turn, `O=C1NCCc2c1cnn2-c1ccnc(Cc2cc(F)cc(C3CC3)c2)c1` [Example 53, 1-(2-(3-cyclopropyl-5-fluorobenzyl)pyridin-4-yl)-1,5,6,7-tetrahydro-4H-pyrazolo[4,3-c]pyridin-4-one] gave an Emax of 100% and an EC50 of 6.31 nM.

`O=C1NCCc2c1cnn2-c1ccnc(Cc2ccc(C(F)(F)F)c(F)c2)c1` [Example 54, 1-(2-(3-fluoro-4-(trifluoromethyl)benzyl)pyridin-4-yl)-1,5,6,7-tetrahydro-4H-pyrazolo[4,3-c]pyridin-4-one] gave an Emax of 63% and an EC50 of 398 nM.

For `COc1ccc(Cc2cc(-n3ncc4c3CCNC4=O)ccn2)cc1C(F)(F)F` [Example 55, 1-(2-(4-methoxy-3-(trifluoromethyl)benzyl)pyridin-4-yl)-1,5,6,7-tetrahydro-4H-pyrazolo[4,3-c]pyridin-4-one], the Emax came out at 69% and a half-maximal effect (EC50) was put at 398 nM.

Molecule `O=C1NCCc2c1cnn2-c1cc(Cc2cc(F)cc(C(F)(F)F)c2)ncn1` [Example 56, 1-(6-(3-fluoro-5-(trifluoromethyl)benzyl)pyrimidin-4-yl)-1,5,6,7-tetrahydro-4H-pyrazolo[4,3-c]pyridin-4-one] gave an Emax of 98% and a 50% effective concentration (EC50) of 126 nM.

`COc1cc(Cc2cc(-n3ncc4c3CCNC4=O)ccn2)cc(C(F)(F)F)c1` [Example 57, 1-(2-(3-methoxy-5-(trifluoromethyl)benzyl)pyridin-4-yl)-1,5,6,7-tetrahydro-4H-pyrazolo[4,3-c]pyridin-4-one]: the Emax turned out to be 44% and the response was half-maximal at 794 nM (EC50).

Molecule `O=C1NCCc2c1cnn2-c1ccnc(Cc2cc(F)c(Cl)c(F)c2)c1` [Example 58, 1-(2-(4-chloro-3,5-difluorobenzyl)pyridin-4-yl)-1,5,6,7-tetrahydro-4H-pyrazolo[4,3-c]pyridin-4-one] showed an Emax of 79% and an EC50 of 100 nM.

On to `O=C1NCCc2c1cnn2-c1ccnc(Cc2ccc3sccc3c2)c1` [Example 59, 1-(2-(benzo[b]thiophen-5-ylmethyl)pyridin-4-yl)-1,5,6,7-tetrahydro-4H-pyrazolo[4,3-c]pyridin-4-one], for which the maximal response (Emax) is 79% and the EC50 is 79.4 nM.

`COc1cc(Cc2cc(-n3ncc4c3CCNC4=O)ccn2)ccc1C(F)(F)F` [Example 60, 1-(2-(3-methoxy-4-(trifluoromethyl)benzyl)pyridin-4-yl)-1,5,6,7-tetrahydro-4H-pyrazolo[4,3-c]pyridin-4-one]: the Emax was determined as 83% and the EC50 was 398 nM.

For `O=C1NCCc2c1cnn2-c1ccnc(Cc2cc(F)cc(S(F)(F)(F)(F)F)c2)c1` [Example 61, 1-(2-(3-fluoro-5-(pentafluoro-λ^6-sulfaneyl)benzyl)pyridin-4-yl)-1,5,6,7-tetrahydro-4H-pyrazolo[4,3-c]pyridin-4-one], the Emax worked out at 99% and the EC50 was 50.1 nM.

The molecule `O=C1NCCc2c1cnn2-c1ccnc(Cc2cc(F)cc(OC(F)F)c2)c1` [Example 62, 1-(2-(3-(difluoromethoxy)-5-fluorobenzyl)pyridin-4-yl)-1,5,6,7-tetrahydro-4H-pyrazolo[4,3-c]pyridin-4-one] had an Emax of 94% and an EC50 of 79.4 nM.

Take `O=C1NCCc2c1cnn2-c1ccnc(Cc2ccc(OC(F)F)c(F)c2)c1` [Example 63, 1-(2-(4-(difluoromethoxy)-3-fluorobenzyl)pyridin-4-yl)-1,5,6,7-tetrahydro-4H-pyrazolo[4,3-c]pyridin-4-one]: the Emax was 70% and the EC50 was 126 nM.

The molecule `O=C1NCCc2c1cnn2-c1ccnc(Cc2cc(F)c(F)c(C(F)(F)F)c2)c1` [Example 64, 1-(2-(3,4-difluoro-5-(trifluoromethyl)benzyl)pyridin-4-yl)-1,5,6,7-tetrahydro-4H-pyrazolo[4,3-c]pyridin-4-one] had an Emax of 94% and an EC50 of 20 nM.

Turning to `O=C1NCCc2c1cnn2-c1ccnc(Cc2cc(F)c(F)c(Cl)c2)c1` [Example 66, 1-(2-(3-chloro-4,5-difluorobenzyl)pyridin-4-yl)-1,5,6,7-tetrahydro-4H-pyrazolo[4,3-c]pyridin-4-one], the Emax was found to be 100% and the midpoint of the response, the EC50, lay at 25.1 nM.

With `O=C1NCCc2c1cnn2-c1ccnc(Cc2cnc3ccccc3c2)c1` [Example 67, 1-(2-(quinolin-3-ylmethyl)pyridin-4-yl)-1,5,6,7-tetrahydro-4H-pyrazolo[4,3-c]pyridin-4-one], the maximal response (Emax) is 53% and the EC50 is 1580 nM.

As for `O=C1NCCc2c1cnn2-c1ccnc(Cc2cc3ccccc3s2)c1` [Example 69, 1-(2-(benzo[b]thiophen-2-ylmethyl)pyridin-4-yl)-1,5,6,7-tetrahydro-4H-pyrazolo[4,3-c]pyridin-4-one], the Emax amounted to 60% and a half-maximal response (EC50) required 126 nM.

`O=C1NCCc2c1cnn2-c1ccnc(Cc2cc(F)c(C(F)(F)F)c(F)c2)c1` [Example 70, 1-(2-(3,5-difluoro-4-(trifluoromethyl)benzyl)pyridin-4-yl)-1,5,6,7-tetrahydro-4H-pyrazolo[4,3-c]pyridin-4-one]: the maximum response (Emax) came to 74% and the response was half-maximal at 316 nM (EC50).
